In US12180207B2 (ARRAY BIOPHARMA INC., priority 2018, dated 2024) one finds IC50 data, which are given here for 15 compounds.

For test [1], the target named is phosphorylated FGFR3 (SEQ ID NO: 5, amino acids 449 to 759) (Homo sapiens (Human), UniProt P22607). Description: FGFR enzyme binding assay (HTRF tracer displacement), FGFR3. The following applies: 5 nM phosphorylated FGFR3, average of multiple determinations if made. In outline:
(§1)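 Kinase and tracer were incubated with compound for 60 minutes at 22° C. Tracer displacement was then measured by HTRF, and results were expressed as POC with 1 μM control inhibitor defining full displacement.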
Background: TR-FRET usually uses a lanthanide donor and a delayed reading to cut background.

In test [2] the target is recombinant human FGFR1 catalytic domain (amino acids 308-731) (Homo sapiens (Human), UniProt P11362). Description: FGFR1 enzyme activity assay (LanthaScreen TR-FRET). The test is classed as biochemical. The following applies: 20 min incubation at 22° C., average of multiple determinations if made, read-out: FGFR1 Enz FRET IC50. The procedure, abridged: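 His-tagged FGFR1 kinase domain with 100 nM Alexa Fluor 647-poly-GT peptide and ATP in pH 7.5 HEPES/MgCl2 buffer with 2% DMSO, 20 min at 22 °C. Quenched with EDTA plus 2 nM Eu-PY20 antibody and read after 60 min. IC50 comes from a 4-parameter fit of percent of control.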

Test [3] has as its target T1, HEK-293 cells transfected with dox-inducible human wild type FGFR3 (Homo sapiens (Human), UniProt P22607). Description: FGFR3 pFGFR cell assay (ELISA). The following applies: HEK-293 dox-inducible FGFR3, 1 hour compound, 100 ng/ml FGF-acidic. The class given is cell-based. Here is the method: FGFR3 pFGFR Cell Assay: • HEK-293 cells transfected with dox-inducible human wild type FGFR3 (SEQ ID NO: 5) were plated in a collagen or poly-D-lysine coated 96 well flat bottom plates at 4×10^5 cells/well in complete DMEM medium containing 10% FBS and 1 μg/ml doxycycline and allowed to attach for 24 h at 37° C., 5% CO2. Cells were treated with compound using 1:3 serial dilutions with a top final concentration of 5 μM. Compound was incubated on cells for 1 hour at 37° C., 5% CO2. Cells were then stimulated with a final concentration of 100 ng/ml human FGF-acidic for 5 minutes at 37° C., 5% CO2. Medium was removed and cells were lysed with lysis buffer containing phosphatase and protease inhibitors. Phospho FGFR3 was measured by ELISA (R&D Systems cat DYC2719). The ELISA captures total FGFR3 and detects total phospho tyrosine. Optical density was measured for each well using a Versamax reader at a wavelength of 450 nm. 100 POC was determined using no test compounds and 0 POC was determined using a control compound. The POC values were fit to a 4-parameter logistic curve as a function of the concentration of the compound, and the IC50 value is the point where the curve crosses 50 POC.

Test [4] has as its target dephosphorylated FGFR1 (SEQ ID NO: 1, amino acids 458 to 765) (Homo sapiens (Human), UniProt P11362). Description: FGFR enzyme binding assay (HTRF tracer displacement), FGFR1. The following applies: 5 nM dephosphorylated FGFR1, average of multiple determinations if made. The procedure, abridged: as §1
Test [5] has as its target T1, HEK-293 cells transfected with dox-inducible human wild type FGFR3. Description: FGFR3 pERK cell assay. The test is classed as cell-based. The following applies: HEK-293 dox-inducible FGFR3, 1 hour compound, 100 ng/ml FGF-acidic; maximum concentration 5 μM. Here is the method:
FGFR3 pERK Cell Assay: • HEK-293 cells transfected with dox-inducible human wild type FGFR3 (SEQ ID NO: 5) were plated in a collagen or poly-D-lysine coated 96 well flat bottom plates at 4×10^5 cells/well in complete DMEM medium containing 10% FBS and 1 μg/ml doxycycline and allowed to attach for 24 h at 37° C., 5% CO2. Cells were treated with compound using 1:3 serial dilutions with a maximum final concentration of 5 μM. Compound was incubated on cells for 1 hour at 37° C., 5% CO2. Cells were then stimulated with a final concentration of 100 ng/ml human FGF-acidic (R&D Systems Cat number 232-FA/CF) for 5 minutes at 37° C., 5% CO2. Medium was removed, and cells were lysed with lysis buffer containing phosphatase and protease inhibitors. Phospho ERK1/2 was measured using the Meso Scale Discovery sandwich assay (Meso Scale Discovery cat. no. K151DWD). The assay captures phospho ERK1/2 and detects with a sulfo-tagged total ERK1/2 antibody. The chemiluminescent signal was read on the Sector Imager Plate reader. 100 POC was determined using no test compounds and 0 POC was determined using a control compound. The POC values were fit to a 4-parameter logistic curve as a function of the concentration of the compound, and the IC50 value is the point where the curve crosses 50 POC.

Each structure is given as a SMILES string.

recombinant human FGFR1 catalytic domain (amino acids 308-731), sequence (P11362 other isoform, or with tags, fused parts or gaps): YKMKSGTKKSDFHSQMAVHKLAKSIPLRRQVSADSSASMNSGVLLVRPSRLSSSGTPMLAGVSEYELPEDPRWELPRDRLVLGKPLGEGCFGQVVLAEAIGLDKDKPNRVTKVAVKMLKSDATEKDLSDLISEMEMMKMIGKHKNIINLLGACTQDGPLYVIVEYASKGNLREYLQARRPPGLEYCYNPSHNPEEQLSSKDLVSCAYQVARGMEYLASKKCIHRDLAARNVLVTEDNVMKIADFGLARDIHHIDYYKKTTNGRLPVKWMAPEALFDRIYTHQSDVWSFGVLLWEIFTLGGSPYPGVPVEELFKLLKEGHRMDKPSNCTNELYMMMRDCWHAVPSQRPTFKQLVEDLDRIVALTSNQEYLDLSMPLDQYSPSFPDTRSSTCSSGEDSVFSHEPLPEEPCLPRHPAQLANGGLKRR
T1 sequence (P22607 23-806): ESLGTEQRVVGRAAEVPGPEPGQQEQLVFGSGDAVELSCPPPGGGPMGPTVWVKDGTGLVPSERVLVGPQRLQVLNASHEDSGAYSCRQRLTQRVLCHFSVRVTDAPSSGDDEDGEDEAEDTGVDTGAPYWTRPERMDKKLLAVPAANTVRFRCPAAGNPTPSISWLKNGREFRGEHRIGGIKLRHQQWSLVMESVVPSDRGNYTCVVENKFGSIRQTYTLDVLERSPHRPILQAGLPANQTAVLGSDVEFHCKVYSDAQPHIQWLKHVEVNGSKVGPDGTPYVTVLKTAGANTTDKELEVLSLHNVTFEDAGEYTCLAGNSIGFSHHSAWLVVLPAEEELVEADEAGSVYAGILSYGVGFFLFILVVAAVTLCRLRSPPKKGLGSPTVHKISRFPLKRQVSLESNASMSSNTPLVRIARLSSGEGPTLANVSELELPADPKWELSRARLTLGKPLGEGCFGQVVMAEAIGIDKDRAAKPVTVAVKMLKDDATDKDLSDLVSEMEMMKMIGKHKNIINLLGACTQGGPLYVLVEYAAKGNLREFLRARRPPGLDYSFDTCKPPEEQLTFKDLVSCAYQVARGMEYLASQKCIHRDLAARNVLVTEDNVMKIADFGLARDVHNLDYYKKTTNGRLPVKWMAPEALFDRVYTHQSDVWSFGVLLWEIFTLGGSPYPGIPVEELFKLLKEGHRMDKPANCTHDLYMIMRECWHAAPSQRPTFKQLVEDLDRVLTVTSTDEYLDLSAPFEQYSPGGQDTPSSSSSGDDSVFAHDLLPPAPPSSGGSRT
phosphorylated FGFR3 (SEQ ID NO: 5, amino acids 449 to 759), sequence (P22607 449-759): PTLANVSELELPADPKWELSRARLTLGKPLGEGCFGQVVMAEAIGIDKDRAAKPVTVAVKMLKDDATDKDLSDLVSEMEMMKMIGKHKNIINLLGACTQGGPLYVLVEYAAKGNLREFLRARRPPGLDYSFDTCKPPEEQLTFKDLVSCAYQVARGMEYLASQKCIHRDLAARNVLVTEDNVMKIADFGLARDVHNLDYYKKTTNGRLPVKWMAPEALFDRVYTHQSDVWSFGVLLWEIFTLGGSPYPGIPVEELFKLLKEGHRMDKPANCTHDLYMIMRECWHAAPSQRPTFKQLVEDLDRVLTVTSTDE
dephosphorylated FGFR1 (SEQ ID NO: 1, amino acids 458 to 765), sequence (P11362 458-765): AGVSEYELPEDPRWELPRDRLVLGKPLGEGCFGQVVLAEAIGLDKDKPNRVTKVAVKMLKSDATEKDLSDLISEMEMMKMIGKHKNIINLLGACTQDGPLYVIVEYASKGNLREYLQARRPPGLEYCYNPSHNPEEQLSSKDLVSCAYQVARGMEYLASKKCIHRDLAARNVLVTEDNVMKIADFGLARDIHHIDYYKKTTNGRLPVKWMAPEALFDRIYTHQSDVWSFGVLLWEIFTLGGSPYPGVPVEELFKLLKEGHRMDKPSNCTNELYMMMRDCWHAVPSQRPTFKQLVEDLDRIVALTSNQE

Consider `C=CC(=O)N1CC2(CCN(C(=O)N3CCC(n4cc(-c5cc(OC)c6c(C#N)cnn6c5)cn4)CC3)CC2)C1` [Example 6, 6-(1-(1-(2-acryloyl-2,7-diazaspiro[3.5]nonane-7-carbonyl)piperidin-4-yl)-1H-pyrazol-4-yl)-4-methoxypyrazolo[1,5-a]pyridine-3-carbonitrile], for which the IC50 (in general, the concentration that inhibits the measured activity by half) in test [1] was found to be 18 nM; in test [2] it was 10 nM; in test [3], 72 nM; in test [4] it was 157 nM.

Regarding `C=CC(=O)N1C[C@H]2CN(C(=O)N3CCC(n4cc(-c5cc(OC)c6c(C#N)cnn6c5)cn4)CC3)C[C@H]21` [Example 7, 6-(1-(1-((1S,5S)-6-acryloyl-3,6-diazabicyclo[3.2.0]heptane-3-carbonyl)piperidin-4-yl)-1H-pyrazol-4-yl)-4-methoxypyrazolo[1,5-a]pyridine-3-carbonitrile], the IC50 in test [1] was 9 nM; in test [2], 18 nM; in test [3], 110 nM; in test [4], 52 nM.

`C=CC(=O)N1CC2(CCN(C(=O)N3CCC(n4cc(-c5cc(OC)c6c(C#N)cnn6c5)cn4)CC3)C2)C1` [Example 8, 6-(1-(1-(2-acryloyl-2,6-diazaspiro[3.4]octane-6-carbonyl)piperidin-4-yl)-1H-pyrazol-4-yl)-4-methoxypyrazolo[1,5-a]pyridine-3-carbonitrile]: the half-inhibitory concentration (IC50) turned out to be 8 nM in test [1], 18 nM in test [2], 149 nM in test [3] and 73 nM in test [4].

Regarding `C=CC(=O)Nc1ccc(CN2CCC(n3cc(-c4cc(OC)c5c(C#N)cnn5c4)cn3)CC2)cc1` [Example 9, N-(4-((4-(4-(3-cyano-4-methoxypyrazolo[1,5-a]pyridin-6-yl)-1H-pyrazol-1-yl)piperidin-1-yl)methyl)phenyl)acrylamide], the IC50 in test [1] amounted to 5 nM; in test [2] it was 32 nM; in test [3], 28 nM; in test [4] it was 56 nM.

With `C=CC(=O)N(C)c1ccc(CN2CCC(n3cc(-c4cc(OC)c5c(C#N)cnn5c4)cn3)CC2)cc1` [Example 10, N-(4-((4-(4-(3-cyano-4-methoxypyrazolo[1,5-a]pyridin-6-yl)-1H-pyrazol-1-yl)piperidin-1-yl)methyl)phenyl)-N-methylacrylamide], the IC50 in test [1] is 4 nM; in test [2] it was 34 nM; in test [3], 38 nM; in test [4] it was 56 nM.

In the case of `C=CC(=O)N1CCC(n2cc(-c3cc(OC)c4c(C#N)cnn4c3)cn2)CC1` [Example 11, 6-(1-(1-acryloylpiperidin-4-yl)-1H-pyrazol-4-yl)-4-methoxypyrazolo[1,5-a]pyridine-3-carbonitrile], the IC50 in test [1] was 25 nM; in test [2], 22 nM; in test [4], 210 nM.

For the compound `C=CC(=O)N1CCC(F)(C(=O)N2CCC(n3cc(-c4cc(OC)c5c(C#N)cnn5c4)cn3)CC2)CC1` [Example 13, 6-(1-(1-(1-acryloyl-4-fluoropiperidine-4-carbonyl)piperidin-4-yl)-1H-pyrazol-4-yl)-4-methoxypyrazolo[1,5-a]pyridine-3-carbonitrile], the concentration for half-maximal inhibition (IC50) in test [1] came out at 39 nM; in test [2], 10 nM; in test [3], 39 nM; in test [4] it was 245 nM.

On to `C=CC(=O)N1CC(F)(C(=O)N2CCC(n3ncc(-c4cc(OC)c5c(C#N)cnn5c4)c3CC)CC2)C1` [Example 96, 6-(1-(1-(1-acryloyl-3-fluoroazetidine-3-carbonyl)piperidin-4-yl)-5-ethyl-1H-pyrazol-4-yl)-4-methoxypyrazolo[1,5-a]pyridine-3-carbonitrile], for which the IC50 in test [5] was 351 nM; in test [1], 73 nM; in test [2], 384 nM; in test [4], 1620 nM.

`C=CC(=O)N1CC(C(=O)N2CCC(n3cc(-c4cc(OC)c5c(C#N)cnn5c4)c(CC)n3)CC2)C1` [Example 97, 6-(1-(1-(1-acryloylazetidine-3-carbonyl)piperidin-4-yl)-3-ethyl-1H-pyrazol-4-yl)-4-methoxypyrazolo[1,5-a]pyridine-3-carbonitrile]: the 50% inhibitory concentration (IC50) in test [5] is 384 nM; in test [1], 53 nM; in test [2], 117 nM; in test [4] it was 572 nM.

Regarding `C=CC(=O)N1CC(C(=O)N2CCN(c3ncc(-c4cc(OC)c5c(C#N)cnn5c4)cc3C)CC2)C1` [Example 113, 6-(6-(4-(1-acryloylazetidine-3-carbonyl)piperazin-1-yl)-5-methylpyridin-3-yl)-4-methoxypyrazolo[1,5-a]pyridine-3-carbonitrile], the 50% inhibitory concentration (IC50) was determined as 186 nM in test [5], 45 nM in test [1], 107 nM in test [2] and 388 nM in test [4].

On to `C=CC(=O)N1CC(F)(C(=O)N2CCN(c3cc(C)c(-c4cc(OC)c5c(C#N)cnn5c4)cn3)CC2)C1` [Example 114, 6-(6-(4-(1-acryloyl-3-fluoroazetidine-3-carbonyl)piperazin-1-yl)-4-methylpyridin-3-yl)-4-methoxypyrazolo[1,5-a]pyridine-3-carbonitrile], for which the IC50 in test [5] came to 248 nM; in test [1], 63 nM; in test [2], 308 nM; in test [4] it was 850 nM.

For the compound `C=CC(=O)N1CC(C(=O)N2CCN(c3ccc(-c4cc(OC)c5c(C#N)cnn5c4)nn3)CC2)C1` [Example 115, 6-(6-(4-(1-acryloylazetidine-3-carbonyl)piperazin-1-yl)pyridazin-3-yl)-4-methoxypyrazolo[1,5-a]pyridine-3-carbonitrile], the IC50 in test [5] came to 1240 nM; in test [1], 11 nM; in test [2], 85 nM; in test [4] it was 90 nM.

Take `C=CC(=O)N1CC(C(=O)N2CCN(c3cnc(-c4cc(OC)c5c(C#N)cnn5c4)cn3)CC2)C1` [Example 116, 6-(5-(4-(1-acryloylazetidine-3-carbonyl)piperazin-1-yl)pyrazin-2-yl)-4-methoxypyrazolo[1,5-a]pyridine-3-carbonitrile]: the 50% inhibitory concentration (IC50) stood at 164 nM in test [5], 19 nM in test [1], 54 nM in test [2] and 141 nM in test [4].

Regarding `COc1cc(-c2cnc(N3CCN(C(=O)C4(F)CN(C(=O)/C=C/CN(C)C)C4)CC3)cc2C)cn2ncc(C#N)c12` [Example 169, (E)-6-(6-(4-(1-(4-(dimethylamino)but-2-enoyl)-3-fluoroazetidine-3-carbonyl)piperazin-1-yl) -4-methylpyridin-3-yl)-4-methoxypyrazolo [1,5-a]pyridine-3-carbonitrile], the IC50 in test [5] was determined as 175 nM; in test [1], 49 nM; in test [2], 156 nM; in test [4] it was 788 nM.

For the compound `COc1cc(-c2cnn(C3CCN(C(=O)C4CN(C(=O)/C=C/CBr)C4)CC3)c2)cn2ncc(C#N)c12` [Example 180, (E)-6-(1-(1-(1-(4-bromobut-2-enoyl)azetidine-3-carbonyl)piperidin-4-yl)-1H-pyrazol-4-yl)-4-methoxypyrazolo[1,5-a]pyridine-3-carbonitrile], the IC50 came to 45 nM in test [5], 2 nM in test [1], 19 nM in test [2] and 14 nM in test [4].
